Patent US20260184707A1, “PHARMACEUTICAL COMPOUNDS FOR THE TREATMENT OF COMPLEMENT MEDIATED DISORDERS” (ALEXION PHARMACEUTICALS, INC., priority 2022, published 2026)
pIC50: −log10 of the molar value.

Target: T1, Human complement C1s enzyme (Homo sapiens, UniProt P09871)
T1 construct: purified from human serum, Complement Technology, Inc; purchased Complement Technology, Inc; host or cells: human serum (plasma-derived native protein)
T1 sequence (P09871 438-688 limits assumed): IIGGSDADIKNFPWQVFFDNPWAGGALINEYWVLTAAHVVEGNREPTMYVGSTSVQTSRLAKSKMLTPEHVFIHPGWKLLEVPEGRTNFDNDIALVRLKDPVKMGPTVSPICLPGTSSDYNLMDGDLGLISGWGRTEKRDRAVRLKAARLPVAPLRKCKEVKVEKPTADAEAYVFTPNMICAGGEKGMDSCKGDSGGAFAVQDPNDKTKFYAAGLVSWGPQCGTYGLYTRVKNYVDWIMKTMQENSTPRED
T1 sequence (P09871 16-437 partner limits assumed): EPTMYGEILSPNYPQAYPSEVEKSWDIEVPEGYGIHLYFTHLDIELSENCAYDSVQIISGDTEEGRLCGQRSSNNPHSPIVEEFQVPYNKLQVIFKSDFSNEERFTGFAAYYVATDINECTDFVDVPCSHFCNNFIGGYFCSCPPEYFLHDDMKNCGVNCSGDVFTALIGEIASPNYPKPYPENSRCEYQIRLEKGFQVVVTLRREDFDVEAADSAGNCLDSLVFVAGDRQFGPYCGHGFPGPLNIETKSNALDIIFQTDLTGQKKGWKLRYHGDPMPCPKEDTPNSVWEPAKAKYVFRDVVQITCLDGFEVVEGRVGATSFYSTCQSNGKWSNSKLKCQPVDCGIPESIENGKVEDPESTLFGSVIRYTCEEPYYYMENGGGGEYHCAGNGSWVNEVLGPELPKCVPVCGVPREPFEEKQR
Experiment: Human C1s enzyme assay
Assay type: biochemical
Conditions: human complement C1s enzyme 1.16 nM, substrate Z-L-Lys-SBzl, A405; read-out: IC50 (Stars)
In short: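 Thioesterase activity followed colorimetrically (DTNB, A405, 30-s reads) using 100 μM Z-L-Lys-SBzl substrate. Enzyme, human serum-derived C1s at 1.16 nM final, was incubated with test compound for 5 min, room temperature, pH 7.5 Tris buffer with 1 M NaCl. Rate-versus-concentration data fitted by nonlinear regression for IC50.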

| SMILES | pIC50 |
| --- | --- |
| O=C(Cn1c(-c2ccccc2)ncc(NC(=O)c2ccc(Oc3ccccc3Cl)cc2)c1=O)NCc1cc2cnccc2[nH]1 [Compound 72, N-(1-(2-(((1H-pyrrolo[3,2-c]pyridin-2-yl)methyl)amino)-2-oxoethyl)-6-oxo-2-phenyl-1,6-dihydropyrimidin-5-yl)-4-(2-chlorophenoxy)benzamide] | > 7.00 |
| O=C(Cn1c(-c2ccccc2)ncc(NC(=O)c2ccc(C(=O)c3ccccc3)cc2)c1=O)NCc1cc2cnccc2[nH]1 [Compound 73, N-(1-(2-(((1H-pyrrolo[3,2-c]pyridin-2-yl)methyl)amino)-2-oxoethyl)-6-oxo-2-phenyl-1,6-dihydropyrimidin-5-yl)-4-benzoylbenzamide] | > 7.00 |
| O=C(Cn1c(-c2ccccc2)ncc(NC(=O)c2ccc(Oc3ccccc3)nc2)c1=O)NCc1cc2cnccc2[nH]1 [Compound 74, N-(1-(2-(((1H-pyrrolo[3,2-c]pyridin-2-yl)methyl)amino)-2-oxoethyl)-6-oxo-2-phenyl-1,6-dihydropyrimidin-5-yl)-6-phenoxynicotinamide] | > 7.00 |
| O=C(Cn1c(-c2ccccc2)ncc(NC(=O)c2ccc(-c3ccsc3)cc2)c1=O)NCc1cc2cnccc2[nH]1 [Compound 75, N-(1-(2-(((1H-pyrrolo[3,2-c]pyridin-2-yl)methyl)amino)-2-oxoethyl)-6-oxo-2-phenyl-1,6-dihydropyrimidin-5-yl)-4-(thiophen-3-yl)benzamide] | > 7.00 |
| O=C(Cn1c(-c2ccccc2)ncc(NC(=O)NCC2CCCCC2)c1=O)NCc1cc2cnccc2[nH]1 [Compound 76, N-((1H-pyrrolo[3,2-c]pyridine-2-yl)methyl)-2-(5-(3-(cyclohexylmethyl)ureido)-6-oxo-2-phenylpyrimidin-1(6H)-yl)acetamide] | 6.00 to 7.00 |
| O=C(Cn1c(-c2ccccc2)ncc(NCCCc2ccc(C3CC3)cc2)c1=O)NCc1cc2cnccc2[nH]1 [Compound 77, N-((1H-pyrrolo[3,2-c]pyridin-2-yl)methyl)-2-(5-((3-(4-cyclo-propylphenyl)propyl)amino)-6-oxo-2-phenylpyrimidin-1(6H)-yl)acetamide] | > 7.00 |
| O=C(Cn1c(-c2ccccc2)ncc(NC(=O)c2ccc3c(c2)-c2ccccc2C3(F)F)c1=O)NCc1cc2cnccc2[nH]1 [Compound 78, N-(1-(2-(((1H-pyrrolo[3,2-c]pyridin-2-yl)methyl)amino)-2-oxoethyl)-6-oxo-2-phenyl-1,6-dihydropyrimidin-5-yl)-9,9-difluoro-9H-fluorene-3-carbox-amide] | > 7.00 |
| O=C(Cn1c(-c2ccccc2)ncc(NC(=O)NCc2ccccc2)c1=O)NCc1cc2cnccc2[nH]1 [Compound 79, N-((1H-pyrrolo[3,2-c]pyridin-2-yl)methyl)-2-(5-(3-benzyl-ureido)-6-oxo-2-phenylpyr-imidin-1(6H)-yl)acetamide] | 6.00 to 7.00 |
| O=C(Cc1cc(NCCCc2ccccc2)ncc1-c1ccccc1)NCc1cc2cnccc2[nH]1 [Compound 80, N-((1H-pyrrolo[3,2-c]pyridine-2-yl)methyl)-2-(5-phenyl-2-((3-phenylpropyl)amino)pyridine-4-yl)acetamide] | < 6.00 |
| O=C(Cn1c(-c2ccccc2)ncc(-c2nc3ccc(Oc4ccccc4)cc3[nH]2)c1=O)NCc1cc2cnccc2[nH]1 [Compound 81, N-((1H-pyrrolo[3,2-c]pyridin-2-yl)methyl)-2-(6-oxo-5-(6-phenoxy-1H-benzo[d]imidazol-2-yl)-2-phenylpyrimidin-1(6H)-yl)acetamide] | < 6.00 |
| O=C(Cn1c(-c2ccccc2)ncc(-c2nc3ccccc3[nH]2)c1=O)NCc1cc2cnccc2[nH]1 [Compound 82, 2-(5-(1H-benzo[d]pyridine-2-yl)-6-oxo-2-phenylpyrimidin-1(6H)-yl)-N-((1H-pyrrolo[3,2-c]pyridine-2-yl)methyl)acetamide] | < 6.00 |
| O=C(Cn1c(-c2ccccc2)ncc(NC(=O)c2cc3ccc2CCc2ccc(cc2)CC3)c1=O)NCc1cc2cnccc2[nH]1 [Compound 83, N-(1-(2-(((1H-pyrrolo[3,2-c]pyridine-2-yl)methyl)amino)-2-oxoethyl)-6-oxo-2-phenyl-1,6-dihydropyrimidin-5-yl)-1,4(1,4)-dibenzenacyclohexaphane-1^2-carboxamide] | < 6.00 |
| CS(=O)(=NC#N)c1ccc(CCCNc2cnc(-c3ccccc3)n(CC(=O)NCc3cc4cnccc4[nH]3)c2=O)cc1 (centres unmarked) [Compound 84, N-((1H-pyrrolo[3,2-c]pyridine-2-yl)methyl)-2-(5-((3-(4-(N-cyano-S-methylsulfonimidoyl)phenyl)propyl)amino)-6-oxo-2-phenylpyrimidin-1(6H)-yl)acetamide] | > 7.00 |
| Cc1c(NCCCc2ccccc2)ccc(-c2ccccc2)c1CC(=O)NCc1cc2cnccc2[nH]1 [Compound 85, N-((1H-pyrrolo[3,2-c]pyridine-2-yl)methyl)-2-(3-methyl-4-((3-phenylpropyl)amino)-[1,1′-biphenyl]-2-yl)acetamide] | < 6.00 |
| O=C(Cn1c(-c2ccc(OC3COC3)cc2)ncc(NCCCc2ccccc2)c1=O)NCc1cc2cnccc2[nH]1 [Compound 86, N-((1H-pyrrolo[3,2-c]pyridine-2-yl)methyl)-2-(2-(4-(oxetan-3-yloxy)phenyl)-6-oxo-5-((3-phenylpropyl)amino)pyrimidin-1(6H)-yl)acetamide] | > 7.00 |
| CO[C@@H]1CO[C@H]2[C@@H]1OC[C@H]2Oc1ncc(NCCCc2ccccc2)c(=O)n1CC(=O)NCc1cc2cnccc2[nH]1 [Compound 87, N-((1H-pyrrolo[3,2-c]pyridine-2-yl)methyl)-2-(2-(((3R,3aR,6R,6aR)-6-methoxyhexahydrofuro[3,2-b]furan-3-yl)oxy)-6-oxo-5-((3-phenylpropyl)amino)pyrimidin-1(6H)-yl)acetamide] | 6.00 to 7.00 |
| O=C(Cn1c(-c2ccccc2)ncc(NCCCC(=O)c2ccc(Oc3ccccc3)cc2)c1=O)NCc1cc2cnccc2[nH]1 [Compound 88, N-((1H-pyrrolo[3,2-c]pyridin-2-yl)methyl)-2-(6-oxo-5-((4-oxo-4-(4-phenoxyphenyl)but-yl)amino)-2-phenylpyrimidin-1(6H)-yl)acetamide] | > 7.00 |
| CCOP(=O)(COc1ccc(-c2ncc(NCCCc3ccccc3)c(=O)n2CC(=O)NCc2cc3cnccc3[nH]2)cc1)OCC [Compound 89, diethyl ((4-(1-(2-(((1H-pyrrolo[3,2-c]pyridine-2-yl)methyl)amino)-2-oxoethyl)-6-oxo-5-((3-phenylpropyl)amino)-1,6-dihydropyrimidin-2-yl)phenoxy)methyl)phosphonate] | > 7.00 |
| O=C(Cn1c(-c2ccccc2)ncc(NC(=O)CNC(=O)c2ccc(Oc3ccccc3)cc2)c1=O)NCc1cc2cnccc2[nH]1 [Compound 90, N-(2-((1-(2-(((1H-pyrrolo[3,2-c]pyridin-2-yl)methyl)amino)-2-oxoethyl)-6-oxo-2-phenyl-1,6-dihydropyrimidin-5-yl)-amino)-2-oxoethyl)-4-phenoxy-benzamide] | > 7.00 |
| CP(=O)(O)c1ccc(CCCNc2cnc(-c3ccccc3)n(CC(=O)NCc3cc4cnccc4[nH]3)c2=O)cc1 [Compound 91, (4-(3-((1-(2-(((1H-pyrrolo[3,2-c]pyridine-2-yl)methyl)amino)-2-oxoethyl)-6-oxo-2-phenyl-1,6-dihydropyrimidin-5-yl)amino)propyl)phenyl)(methyl)phosphinic acid] | > 7.00 |
